Laboratory results published in patent publication US9572878B2, “Method of combination therapy using an EGFR antagonist and anti-c-Met antibody” (SAMSUNG ELECTRONICS CO., LTD., priority 2013, dated 2017).

What was measured:
[1] = system: HCC827 ER #15 cell line; assay: Confirmation of erlotinib resistance, cell number by CCK-8; format: cell-based, human; details: HCC827 ER #15 vs HCC827; various concentrations, 120 hours; FIG. 3
Experimental: HCC827 human lung cancer cell line was in vitro treated with an EGFR antagonist erlotinib for a given period to establish HCC827 ER(HCC827 erlotinib-resistant) cell line. More specifically, HCC827 human lung cancer cell line (CRL-2868, ATCC) was in vitro treated with an EGFR antagonist erlotinib (Roche) in an amount of 5 nM to 10 nM for 5 months or more, to construct Erlotinib resistant cell (ER cell) clone.

[2] = system: HCC827 ER #15; assay: Combined use of erlotinib and antibodies in erlotinib resistant cell line, cell number by CCK-8; format: cell-based, human
Experimental: In a 96 well plate, diluted HCC827 ER #15 was seeded at 5000 cells/well in a […] medium (GIBCO) containing 10% FBS, and then, incubated at 37° C. overnight. On the next day, the medium was replaced with a RPMI1640 medium containing 1% FBS (GIBCO), and then, the antibody was serially diluted from 100 ug/ml, and the cells were treated therewith at 100 ul. For co-administration, the cells were treated with 10 nM or 100 nM erlotinib, together with the antibody. After 5 days, the number of cells was measured using a CCK-8 reagent (Dojindo laboratory).

[3] = biological target: c-Met (Homo sapiens, UniProt P08581); assay: Specificity of expressed scFv of huAbF46; format: binding; details: expressed scFv product
Text: For use in constructing an scFv of the huAbF46 antibody from the heavy and light chain variable regions of the huAbF46 antibody, a gene was designed to have the structure of “VH-linker-VL” for each of the heavy and the light chain variable region, with the linker having the amino acid sequence “[…]” (SEQ ID NO: 54). A polynucleotide sequence (SEQ ID NO: 55) encoding the designed scFv of huAbF46 was synthesized in Bioneer and an expression vector for the polynucleotide had the nucleotide sequence of SEQ ID NO: 56.

Sequence of c-Met (P08581 25-1390): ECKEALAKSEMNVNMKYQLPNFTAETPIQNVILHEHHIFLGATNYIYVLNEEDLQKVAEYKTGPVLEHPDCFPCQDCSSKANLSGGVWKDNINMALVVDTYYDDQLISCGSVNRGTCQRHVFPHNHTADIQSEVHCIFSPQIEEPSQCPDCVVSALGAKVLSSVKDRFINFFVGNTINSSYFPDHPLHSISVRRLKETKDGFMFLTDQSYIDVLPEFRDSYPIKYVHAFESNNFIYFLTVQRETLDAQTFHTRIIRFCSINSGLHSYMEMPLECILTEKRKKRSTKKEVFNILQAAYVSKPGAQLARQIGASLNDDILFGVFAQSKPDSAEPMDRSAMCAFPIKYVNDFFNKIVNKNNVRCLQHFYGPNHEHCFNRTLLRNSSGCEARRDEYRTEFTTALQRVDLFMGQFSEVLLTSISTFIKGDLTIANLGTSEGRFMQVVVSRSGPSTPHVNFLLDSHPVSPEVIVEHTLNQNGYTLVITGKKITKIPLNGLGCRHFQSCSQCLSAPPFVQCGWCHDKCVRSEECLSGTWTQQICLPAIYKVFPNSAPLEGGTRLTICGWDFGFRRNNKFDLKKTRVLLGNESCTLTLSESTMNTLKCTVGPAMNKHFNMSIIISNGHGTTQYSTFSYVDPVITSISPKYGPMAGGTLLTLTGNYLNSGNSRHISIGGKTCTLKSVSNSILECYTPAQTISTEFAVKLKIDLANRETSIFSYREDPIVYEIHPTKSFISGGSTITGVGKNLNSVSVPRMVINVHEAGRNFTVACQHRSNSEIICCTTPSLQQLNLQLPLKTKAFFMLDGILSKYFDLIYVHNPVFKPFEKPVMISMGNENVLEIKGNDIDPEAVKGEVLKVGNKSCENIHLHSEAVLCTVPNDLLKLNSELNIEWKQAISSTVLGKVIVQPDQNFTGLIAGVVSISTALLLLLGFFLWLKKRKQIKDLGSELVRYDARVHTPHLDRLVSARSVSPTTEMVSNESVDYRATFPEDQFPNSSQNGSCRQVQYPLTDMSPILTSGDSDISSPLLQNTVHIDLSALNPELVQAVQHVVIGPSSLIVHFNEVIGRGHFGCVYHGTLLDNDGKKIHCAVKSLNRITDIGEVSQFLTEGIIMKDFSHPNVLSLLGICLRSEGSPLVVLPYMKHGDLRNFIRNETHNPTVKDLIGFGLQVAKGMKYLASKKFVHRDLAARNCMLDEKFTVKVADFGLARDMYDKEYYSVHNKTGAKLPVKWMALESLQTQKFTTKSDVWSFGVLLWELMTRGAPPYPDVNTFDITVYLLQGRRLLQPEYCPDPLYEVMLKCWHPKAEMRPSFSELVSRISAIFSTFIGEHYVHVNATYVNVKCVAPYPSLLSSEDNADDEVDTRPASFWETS

## C#Cc1cccc(Nc2ncnc3cc(OCCOC)c(OCCOC)cc23)c1 [erlotinib]
[1]
  resistance of cell line to EGFR antagonist: resistance occurred

## Rituximab [reference compound]
[2]; HCC827 ER #15, antibody dilution series with 10 nM or 100 nM erlotinib, 5 days, FIGS. 4a-4d
  synergistic effect of co-administration with erlotinib: synergistic effect was not observed
[2]; HCC827 ER#15, antibodies 0.14 μg/ml, erlotinib 10 nM, FIG. 5
  synergistic effects on cell viability, co-administration with erlotinib at fixed concentrations: synergistic effects were not observed

B1: scFv of huAbF46: VH-linker-VL single-chain Fv of the huAbF46 antibody (polynucleotide SEQ ID NO: 55) (protein)
scFv: EVQLVESGGGLVQPGGSLRLSCAASGFTFTDYYMSWVRQAPGKGLEWLGFIRNKANGYTTEYSASVKGRFTISRDNSKNTLYLQMNSLRAEDTAVYYCARDNWFAYWGQGTLVTVSSGLGGLGGGGSGGGGSGGSSGVGSDIQMTQSPSSLSASVGDRVTITCKSSQSLLASGNQNNYLAWHQQKPGKAPKMLIIWASTRVSGVPSRFSGSGSGTDFTLTISSLQPEDFATYYCQQSYSAPLTFGQGTKVEIKR
[3]
  specificity to c-Met: exhibit specificity to c-Met
